Laboratory results from paper PMC7125889 (Bioorganic & Medicinal Chemistry, 2008).
Where a name gives a salt, the structure may show the parent alone.

Assays:
[1] = test system: NMDA receptors; test: NMDA receptor antagonist functional assay, intracellular calcium; assay type: cell-based; conditions: for times more potent than amantadine as NMDA receptor antagonist: vs amantadine
[2] = test system: bloodstream form T. brucei (strain 427); test: Trypanocidal activity against cultured bloodstream form T. brucei; conditions: concentrations up to 5 μg mL−1

Compound	activity against cultured bloodstream form T. brucei [2]	other results
NCC12CC3CC(CC1C3)C2 [Compound 14, [(Tricyclo[3.3.1.0^3,7]non-3-yl)methyl]amine hydrochloride]	–	NMDA receptor antagonist activity (in words) ([1]; cerebellar granule neurons, highest concentration tested): no NMDA receptor antagonist activity
CC12CC3CC1(C)CC3(N)C2 [Compound 21, 3,7-Dimethyl(tricyclo[3.3.0.0^3,7]oct-1-yl)amine·HCl]	no significant activity	times more potent as NMDA receptor antagonist than 3-noradamantylamine, 7 ([1]; vs compound 7): 4 times
CC12CC3CC1(C)CC3(NCc1ccccc1)C2 [Compound 22a, N-Benzyl-3,7-dimethyl(tricyclo[3.3.0.0^3,7]oct-1-yl)amine hydrochloride]	no significant activity	–
CN(Cc1ccccc1)C12CC3(C)CC1CC3(C)C2 [Compound 23, N-Benzyl-N,3,7-trimethyl(tricyclo[3.3.0.0^3,7]oct-1-yl)amine hydrochloride]	no significant activity	–
CC(N)C12CC3(C)CC1CC3(C)C2 (stereo not drawn) [Compound 25, 1-(3,7-Dimethyltricyclo[3.3.0.0^3,7]oct-1-yl)ethylamine hydrochloride]	–	times more potent than amantadine as NMDA receptor antagonist ([1]; NMDA challenge): 2.5 times
CC12CC3CC1(C)CC3(N(Cc1ccccc1)Cc1ccccc1)C2 [Compound 27, N,N-Dibenzyl-3,7-dimethyl(tricyclo[3.3.0.0^3,7]oct-1-yl)amine hydrochloride]	no significant activity	–
CNC12CC3(C)CC1CC3(C)C2 [Compound 28, N-3,7-Trimethyl(tricyclo[3.3.0.0^3,7]oct-1-yl)amine hydrochloride]	no significant activity	–
CN(Cc1ccccc1)CC12CC3(C)CC1CC3(C)C2 [Compound 32, N-Benzyl-N-methyl[(3,7-dimethyltricyclo[3.3.0.0^3,7]oct-1-yl)methyl]amine hydrochloride]	no significant activity	–
CC12CC3CC1(C)CC3(CN1CCCCC1)C2 [Compound 34, N-[(3,7-Dimethyltricyclo[3.3.0.0^3,7]oct-1-yl)methyl]piperidine hydrochloride]	no significant activity	–
CC12CC3CC1(C)CC3(CNC(=N)N)C2 [Compound 35, N-[(3,7-dimethyltricyclo[3.3.0.0^3,7]oct-1-yl)methyl]guanidine hydrochloride]	without antiviral and trypanocidal activities	times more potent than amantadine as NMDA receptor antagonist ([1]; NMDA challenge): 10 times; times more potent than corresponding noradamantyl analog, 18 ([1]; vs compound 18): 3.5 times; times less potent than memantine as NMDA receptor antagonist ([1]; vs memantine, NMDA challenge): 5 times
CNCC12CC3(C)CC1CC3(C)C2 [Compound 36, N-Methyl[(3,7-dimethyltricyclo[3.3.0.0^3,7]oct-1-yl)methyl]amine hydrochloride]	no significant activity	–
